Structures are written as SMILES.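 Dose response: 5 concentrations. Exposure: 48 h. Format: 96-well plates. Endpoint: linear interpolation; highest concentration if not reached. At the TGI there is no net growth.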

We go through eleven compounds from PubChem BioAssay (NCI).

Some test systems named below: COLO 205 colon; EKVX NSCLC; HL-60(TB) leukemia; NCI-H460 lung; OVCAR-4 ovarian; SF-268 CNS; SK-MEL-2 melanoma; SNB-19 CNS; SNB-75 CNS; UACC-257 melanoma; 786-0 renal; M14 melanoma; MDA-MB-435.
What all share (experiment): NCI-60 cell line screen, 48 h

Regarding `Cc1cc(NC(=S)Nc2ccccc2)c(NC(=S)Nc2ccccc2)cc1C`, the TGI in the experiment with COLO 205 colon is above 74.3 µM; with EKVX NSCLC it was above 100 µM; with HL-60(TB) leukemia it was 5.23 µM; in the experiment on NCI-H460 lung, above 61.7 µM; in the experiment on OVCAR-4 ovarian it was above 100 µM; in the experiment with SF-268 CNS, above 100 µM. Besides, the TGI with SK-MEL-2 melanoma was above 31.6 µM; with SNB-19 CNS, above 100 µM; with SNB-75 CNS, above 94.7 µM; in the experiment on UACC-257 melanoma it was above 100 µM.
`Nc1ccccc1CCCC(=O)O`: the TGI in the experiment with 786-0 renal, in the experiment on COLO 205 colon, in the experiment on HL-60(TB) leukemia, in the experiment with M14 melanoma, with MDA-MB-435 and in the experiment on NCI-H460 lung was above 100 µM in each case. Besides, the TGI in the experiment with OVCAR-4 ovarian, with SF-268 CNS, in the experiment with SK-MEL-2 melanoma, in the experiment with SNB-19 CNS, in the experiment with SNB-75 CNS and in the experiment with UACC-257 melanoma was above 100 µM throughout.
With `COCc1nc2c(OC)cc(-c3nc4nc(N5CCN(C)CC5)ccc4[nH]3)c(OC)c2[nH]1`, the TGI was above 100 µM in the experiment on 786-0 renal; above 100 µM in the experiment on COLO 205 colon; above 100 µM in the experiment with EKVX NSCLC; above 100 µM with HL-60(TB) leukemia; 42.4 µM in the experiment on M14 melanoma; above 100 µM in the experiment on MDA-MB-435. Also, the TGI in the experiment on NCI-H460 lung is above 100 µM; with OVCAR-4 ovarian, above 100 µM; in the experiment on SF-268 CNS, above 100 µM; in the experiment on SNB-19 CNS it was above 100 µM; with SNB-75 CNS, above 100 µM; with UACC-257 melanoma, 61 µM.
For the compound `COc1cc2c(cc1OCCCOc1cc(-c3ccc(F)cc3)nc(C)n1)N=C[C@@H]1CCCN1C2=O`, the TGI was 31.5 µM in the experiment with 786-0 renal; above 100 µM with COLO 205 colon; 39.3 µM in the experiment with EKVX NSCLC; 54.1 µM in the experiment with HL-60(TB) leukemia; 29.3 µM in the experiment on M14 melanoma; 28.5 µM in the experiment with MDA-MB-435. For the same compound, the TGI is above 100 µM in the experiment on NCI-H460 lung; above 100 µM in the experiment with OVCAR-4 ovarian; 36.4 µM in the experiment with SF-268 CNS; 35.2 µM with SK-MEL-2 melanoma; 64.4 µM in the experiment on SNB-19 CNS; 49.1 µM with SNB-75 CNS. The compound further registered a TGI in the experiment on UACC-257 melanoma of 43 µM.
On to `CCC(=O)Nc1ccc(N=Cc2cccc(Oc3ccccc3)c2)cc1`, for which the TGI with 786-0 renal was above 100 µM; with COLO 205 colon, above 100 µM; in the experiment with EKVX NSCLC, above 100 µM; in the experiment on HL-60(TB) leukemia it was 63 µM; in the experiment on M14 melanoma, above 100 µM; with MDA-MB-435 it was above 100 µM. Further, the TGI in the experiment with OVCAR-4 ovarian, with SF-268 CNS, with SK-MEL-2 melanoma, with SNB-19 CNS and with SNB-75 CNS was above 100 µM each time.
Regarding `Cn1c2ccccc2c2c(-c3ccccc3)[n+]3ccccc3nc21`, the TGI in the experiment with 786-0 renal is 65.4 µM; in the experiment with COLO 205 colon it was above 100 µM; with EKVX NSCLC it was above 100 µM; in the experiment with HL-60(TB) leukemia, 66.6 µM; in the experiment with M14 melanoma, 34.4 µM; in the experiment on MDA-MB-435 it was 36.6 µM. Also, the TGI was 59.6 µM in the experiment with NCI-H460 lung; above 100 µM in the experiment on OVCAR-4 ovarian; 38.8 µM in the experiment with SF-268 CNS; 40.4 µM in the experiment with SK-MEL-2 melanoma; above 100 µM with SNB-19 CNS; above 100 µM in the experiment with SNB-75 CNS. The TGI with UACC-257 melanoma came out at 36.9 µM.
For `COC(=O)CCC(=O)CC(=O)C1=NS(=O)(=O)c2nc(S(N)(=O)=O)c(Cl)cc2N1`, the TGI in the experiment on COLO 205 colon, in the experiment on EKVX NSCLC, in the experiment on HL-60(TB) leukemia, in the experiment on M14 melanoma, with NCI-H460 lung and in the experiment on OVCAR-4 ovarian was above 100 µM each time. For the same compound, the TGI in the experiment on SF-268 CNS, in the experiment on SK-MEL-2 melanoma, with SNB-19 CNS, in the experiment with SNB-75 CNS and with UACC-257 melanoma was above 100 µM in each case.
For the compound `CC(C)=CC1C(COC(=O)c2cc3c(cc2Cl)OCO3)C1(C)C` (centres undefined), the TGI with 786-0 renal is above 100 µM; in the experiment on EKVX NSCLC, above 100 µM; in the experiment with HL-60(TB) leukemia it was 47.6 µM; in the experiment on M14 melanoma it was above 100 µM; with MDA-MB-435, above 100 µM; in the experiment on NCI-H460 lung, above 100 µM. Also, the TGI with OVCAR-4 ovarian is above 100 µM; with SF-268 CNS it was 65.8 µM; with SK-MEL-2 melanoma, 40.6 µM; in the experiment on SNB-19 CNS, above 100 µM; in the experiment on UACC-257 melanoma, above 100 µM.
`COc1cc(O)cc(/C=C/c2ccc(O)cc2)c1`: the TGI was above 100 µM in the experiment on 786-0 renal; above 100 µM in the experiment with COLO 205 colon; 94.1 µM with EKVX NSCLC; above 100 µM with HL-60(TB) leukemia; above 100 µM with M14 melanoma; above 100 µM in the experiment on MDA-MB-435. In addition, the TGI in the experiment with NCI-H460 lung, with OVCAR-4 ovarian, in the experiment with SF-268 CNS, in the experiment with SK-MEL-2 melanoma, in the experiment on SNB-19 CNS and in the experiment with SNB-75 CNS was above 100 µM each time. The compound further gave a TGI with UACC-257 melanoma above 100 µM.
As to `O=C(O)CNC(=O)CO/N=C1/C(c2c(O)[nH]c3ccccc23)=Nc2ccccc21`, the TGI in the experiment with 786-0 renal, in the experiment on COLO 205 colon, with EKVX NSCLC, with HL-60(TB) leukemia, in the experiment with M14 melanoma and with MDA-MB-435 was above 100 µM in each case. Further, the TGI in the experiment on NCI-H460 lung, in the experiment with OVCAR-4 ovarian, in the experiment on SF-268 CNS, in the experiment with SK-MEL-2 melanoma, in the experiment on SNB-19 CNS and in the experiment on SNB-75 CNS was above 100 µM throughout. In the experiment with UACC-257 melanoma, this compound registered a TGI above 100 µM.
On to `CC1C(=O)OC2CC[N+]3(CC(=O)c4ccc(Br)cc4)CC=C(COC(=O)C(C)(O)C1(C)O)C23` (centres undefined), for which the TGI in the experiment on COLO 205 colon, with EKVX NSCLC, in the experiment with HL-60(TB) leukemia, in the experiment with NCI-H460 lung, in the experiment with OVCAR-4 ovarian and in the experiment on SF-268 CNS was above 375 µM each time. Further, the TGI in the experiment on SK-MEL-2 melanoma, with SNB-19 CNS, in the experiment with SNB-75 CNS and in the experiment with UACC-257 melanoma was above 375 µM throughout.
